Assay in all cases: relative viability (nuclei count vs DMSO), 5 days (fraction); higher = more cells survive
Compound in the experiment “Wnt-C59 + Vorinostat”: CC1=NC=CC(=C1)C2=CC=C(C=C2)CC(=O)NC3=CC=C(C=C3)C4=CN=CC=C4 [Wnt-C59] + O=C(CCCCCCC(=O)Nc1ccccc1)NO [Vorinostat] (partner 1 µM)
The gist of the method: (§1)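 Lung cancer cell lines in 1536-well plates were dosed by pin tool the day after seeding, either with one drug alone or with a fixed anchor-drug dose plus five library-drug doses (not always all listed) in √10 steps. After 5 days, cells were fixed and their nuclei stained in one step (final 0.05% Triton X-100, 1% formaldehyde, 1 ug/ml Hoechst), then counted on 4× images. Relative viability is the nuclei count in treated wells divided by that in vehicle wells. Values are medians of duplicate plates.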

Compound in the experiment “Wnt-C59 + Foretinib”: CC1=NC=CC(=C1)C2=CC=C(C=C2)CC(=O)NC3=CC=C(C=C3)C4=CN=CC=C4 [Wnt-C59] + COc1cc2c(Oc3ccc(NC(=O)C4(C(=O)Nc5ccc(F)cc5)CC4)cc3F)ccnc2cc1OCCCN1CCOCC1 [Foretinib] (partner 0.25 µM)
The method, boiled down:
as §1

Compound in the experiment “Lapatinib + Alpelisib”: CS(=O)(=O)CCNCc1ccc(-c2ccc3ncnc(Nc4ccc(OCc5cccc(F)c5)c(Cl)c4)c3c2)o1 [Lapatinib] + Cc1nc(NC(=O)N2CCC[C@H]2C(N)=O)sc1-c1ccnc(C(C)(C)C(F)(F)F)c1 [Alpelisib] (partner 2 µM)
The method, boiled down: as §1

Compound in the experiment “Wnt-C59 + Crizotinib”: CC1=NC=CC(=C1)C2=CC=C(C=C2)CC(=O)NC3=CC=C(C=C3)C4=CN=CC=C4 [Wnt-C59] + C[C@@H](Oc1cc(-c2cnn(C3CCNCC3)c2)cnc1N)c1c(Cl)ccc(F)c1Cl [Crizotinib] (partner 1 µM)
The method, boiled down:
as §1

For RERF-LC-KJ, the relative viability with Wnt-C59 + Vorinostat (first compound 0.001 µM) came out at 0.746; with Wnt-C59 + Vorinostat (first compound 0.01 µM) it was 0.671; with Wnt-C59 + Vorinostat (first compound 0.03162 µM), 0.825; with Wnt-C59 + Vorinostat (first compound 0.1 µM), 0.715; with Wnt-C59 + Foretinib (first compound 0.001 µM) it was 0.889; with Wnt-C59 + Foretinib (first compound 0.01 µM), 0.832. The relative viability with Wnt-C59 + Foretinib (first compound 0.03162 µM) worked out at 0.915; in the experiment with Wnt-C59 + Foretinib (first compound 0.1 µM), 0.926; in the experiment with Lapatinib + Alpelisib (first compound 0.02 µM), 0.729; with Lapatinib + Alpelisib (first compound 0.06325 µM), 0.463; with Lapatinib + Alpelisib (first compound 0.2 µM) it was 0.673; in the experiment with Lapatinib + Alpelisib (first compound 0.6325 µM), 0.655. The relative viability is 0.468 in the experiment with Lapatinib + Alpelisib (first compound 2 µM); 0.868 with Wnt-C59 + Crizotinib (first compound 0.001 µM); 0.764 in the experiment with Wnt-C59 + Crizotinib (first compound 0.01 µM); 0.878 with Wnt-C59 + Crizotinib (first compound 0.03162 µM); 0.852 with Wnt-C59 + Crizotinib (first compound 0.1 µM).
On to SK-LU-1, for which the relative viability stood at 0.672 with Wnt-C59 + Vorinostat (first compound 0.001 µM); 0.768 in the experiment with Wnt-C59 + Vorinostat (first compound 0.01 µM); 0.81 with Wnt-C59 + Vorinostat (first compound 0.03162 µM); 0.682 in the experiment with Wnt-C59 + Vorinostat (first compound 0.1 µM); 0.791 in the experiment with Wnt-C59 + Foretinib (first compound 0.001 µM); 0.796 with Wnt-C59 + Foretinib (first compound 0.01 µM). Also, the relative viability was 0.87 in the experiment with Wnt-C59 + Foretinib (first compound 0.03162 µM); 0.792 in the experiment with Wnt-C59 + Foretinib (first compound 0.1 µM); 0.953 with Lapatinib + Alpelisib (first compound 0.06325 µM); 0.99 in the experiment with Lapatinib + Alpelisib (first compound 0.2 µM); 1.1 with Lapatinib + Alpelisib (first compound 0.6325 µM); 0.977 in the experiment with Lapatinib + Alpelisib (first compound 2 µM). The relative viability with Wnt-C59 + Crizotinib (first compound 0.001 µM) turned out to be 0.869; in the experiment with Wnt-C59 + Crizotinib (first compound 0.01 µM), 0.935; with Wnt-C59 + Crizotinib (first compound 0.03162 µM), 0.91; with Wnt-C59 + Crizotinib (first compound 0.1 µM), 1.03.
In the case of SK-MES-1, the relative viability with Wnt-C59 + Vorinostat (first compound 0.001 µM) was 1.12; in the experiment with Wnt-C59 + Vorinostat (first compound 0.01 µM), 1.11; with Wnt-C59 + Vorinostat (first compound 0.03162 µM), 1.21; with Wnt-C59 + Vorinostat (first compound 0.1 µM) it was 1.03; with Wnt-C59 + Foretinib (first compound 0.001 µM), 0.974; in the experiment with Wnt-C59 + Foretinib (first compound 0.01 µM) it was 0.81. Moreover, the relative viability with Wnt-C59 + Foretinib (first compound 0.03162 µM) was 0.905; with Wnt-C59 + Foretinib (first compound 0.1 µM), 0.918; with Lapatinib + Alpelisib (first compound 0.02 µM), 0.698; with Lapatinib + Alpelisib (first compound 0.2 µM) it was 0.709; with Lapatinib + Alpelisib (first compound 0.6325 µM), 0.629; with Lapatinib + Alpelisib (first compound 2 µM) it was 0.33. The relative viability with Wnt-C59 + Crizotinib (first compound 0.001 µM) was determined as 1.01; with Wnt-C59 + Crizotinib (first compound 0.01 µM), 0.973; with Wnt-C59 + Crizotinib (first compound 0.03162 µM) it was 1.07; in the experiment with Wnt-C59 + Crizotinib (first compound 0.1 µM), 0.959.
Take SW 1573: the relative viability with Wnt-C59 + Vorinostat (first compound 0.001 µM) stood at 0.801; in the experiment with Wnt-C59 + Vorinostat (first compound 0.01 µM) it was 0.673; in the experiment with Wnt-C59 + Vorinostat (first compound 0.03162 µM), 0.778; in the experiment with Wnt-C59 + Vorinostat (first compound 0.1 µM) it was 0.662; with Wnt-C59 + Foretinib (first compound 0.001 µM), 1.13; with Wnt-C59 + Foretinib (first compound 0.01 µM) it was 1.03. For the same cell line, the relative viability with Wnt-C59 + Foretinib (first compound 0.03162 µM) was 0.879; with Wnt-C59 + Foretinib (first compound 0.1 µM), 0.784; with Lapatinib + Alpelisib (first compound 0.02 µM), 0.705; in the experiment with Lapatinib + Alpelisib (first compound 0.06325 µM), 0.648; with Lapatinib + Alpelisib (first compound 0.2 µM), 0.635; with Lapatinib + Alpelisib (first compound 0.6325 µM) it was 0.821. In addition, the relative viability was 0.843 in the experiment with Lapatinib + Alpelisib (first compound 2 µM); 0.771 with Wnt-C59 + Crizotinib (first compound 0.001 µM); 0.764 in the experiment with Wnt-C59 + Crizotinib (first compound 0.01 µM); 0.746 with Wnt-C59 + Crizotinib (first compound 0.03162 µM); 0.825 with Wnt-C59 + Crizotinib (first compound 0.1 µM).

These data come from the supplement of paper PMC10307832.
